IC50 data for 23 molecules are collected here from US20220356174A1, “PYRIDIN-2-ONE COMPOUNDS USEFUL AS SMARCA2 ANTAGONISTS” (Epizyme, Inc., priority 2018, published 2022).

The structures appear in SMILES notation.

In one test the target is T1, FL-SMARCA2 (full-length human SMARCA2 isoform 1) (Homo sapiens, UniProt P51531).
T1 construct: FLAG tag (YKDDDDK) (C); made in house; host or cells: Sf21 insect cells (baculovirus, pFastBacI)
T1 sequence (P51531 with tags, fused parts or gaps): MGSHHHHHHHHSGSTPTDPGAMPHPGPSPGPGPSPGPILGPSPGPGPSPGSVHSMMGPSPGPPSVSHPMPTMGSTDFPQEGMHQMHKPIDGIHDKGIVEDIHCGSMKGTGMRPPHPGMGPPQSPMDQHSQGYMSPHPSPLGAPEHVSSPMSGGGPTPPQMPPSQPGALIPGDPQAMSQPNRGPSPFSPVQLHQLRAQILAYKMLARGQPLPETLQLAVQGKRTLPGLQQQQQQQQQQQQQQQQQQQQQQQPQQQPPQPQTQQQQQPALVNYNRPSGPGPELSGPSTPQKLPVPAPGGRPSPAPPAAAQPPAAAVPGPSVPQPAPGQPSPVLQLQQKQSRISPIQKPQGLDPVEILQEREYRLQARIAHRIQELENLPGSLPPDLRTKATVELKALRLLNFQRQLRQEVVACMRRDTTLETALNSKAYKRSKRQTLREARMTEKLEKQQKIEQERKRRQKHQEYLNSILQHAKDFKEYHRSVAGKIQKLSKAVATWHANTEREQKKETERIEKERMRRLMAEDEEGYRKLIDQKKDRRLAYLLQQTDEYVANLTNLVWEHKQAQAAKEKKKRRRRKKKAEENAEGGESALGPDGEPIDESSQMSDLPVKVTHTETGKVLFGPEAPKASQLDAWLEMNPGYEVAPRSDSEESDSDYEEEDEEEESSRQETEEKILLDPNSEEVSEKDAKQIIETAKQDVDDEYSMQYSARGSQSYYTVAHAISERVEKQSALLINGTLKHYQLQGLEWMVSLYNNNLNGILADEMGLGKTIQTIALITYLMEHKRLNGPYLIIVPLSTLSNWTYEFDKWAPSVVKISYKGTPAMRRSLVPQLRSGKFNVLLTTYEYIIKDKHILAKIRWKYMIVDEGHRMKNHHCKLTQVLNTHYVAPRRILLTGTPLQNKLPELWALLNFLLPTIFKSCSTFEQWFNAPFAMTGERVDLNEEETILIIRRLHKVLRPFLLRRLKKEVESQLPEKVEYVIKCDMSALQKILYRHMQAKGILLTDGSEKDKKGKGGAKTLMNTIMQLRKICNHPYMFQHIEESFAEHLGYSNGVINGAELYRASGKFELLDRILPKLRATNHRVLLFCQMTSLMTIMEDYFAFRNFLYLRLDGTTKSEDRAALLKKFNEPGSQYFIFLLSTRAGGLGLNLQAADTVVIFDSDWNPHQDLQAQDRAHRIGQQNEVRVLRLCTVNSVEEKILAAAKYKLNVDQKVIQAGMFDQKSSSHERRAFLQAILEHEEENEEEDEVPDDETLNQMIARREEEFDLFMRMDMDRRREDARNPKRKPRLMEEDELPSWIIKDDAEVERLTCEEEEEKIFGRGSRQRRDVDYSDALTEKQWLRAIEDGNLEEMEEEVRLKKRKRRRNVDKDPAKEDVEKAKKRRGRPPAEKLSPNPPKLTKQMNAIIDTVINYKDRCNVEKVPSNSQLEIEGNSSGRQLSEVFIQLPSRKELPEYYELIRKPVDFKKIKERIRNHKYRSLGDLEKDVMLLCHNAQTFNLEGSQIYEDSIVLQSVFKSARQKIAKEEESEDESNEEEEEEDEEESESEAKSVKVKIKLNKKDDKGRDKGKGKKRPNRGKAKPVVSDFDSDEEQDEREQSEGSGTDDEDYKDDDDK
Kind of test: SMARCA2 ATPase activity assay (ADP-Glo, chicken mononucleosome substrate). The conditions noted are these: Table 3.1; ATPase assay, enzyme 5 nM, ATP 250 uM, chicken mononucleosome 10 nM, 30 min preincubation. The test is classed as biochemical. The source says: Molecular Biology: Full-length human SMARCA2 isoform 1 (P51531) transcript clone was amplified from a cDNA library incorporating an N-terminal HIS tag ([…]) fused directly to Ser2 of SMARCA2 and a C-FLAG tag (YKDDDDK) fused directly to Glu1590 of SMARCA2. The amplified gene was subcloned into pFastBacI (Life Technologies).
Protein Expression: Recombinant baculovirus were generated and protein over-expression was accomplished by infecting exponentially growing Sf21 insect cell culture at 1.24×10^6 cell/ml with an MOI of 0.1. Infections were carried out for 76 hours, harvested by centrifugation, and stored at −80° C. for purification.
Expressed full-length SMARCA2 was purified from cell paste by FLAG affinity chromatography followed by anion exchange chromatography. The protein was dialyzed into a storage buffer containing 25 mM HEPES, 300 mM KCl, 10% Glycerol, pH 7.9, 1 mM TCEP and 0.01% Tween-20. The purity of the protein was measured as 74% using micro-capillary based gel electrophoresis.
`NS(=O)(=O)c1sc(C(=O)Nc2cc(F)c(=O)n(CCF)c2)cc1Cl` [Compound 309] showed an IC50 of 29.6 µM.

Turning to `CCn1cc(NC(=O)c2nnc(C)s2)ccc1=O` [Compound 78], the IC50 is greater than 50 µM.

For the molecule `CNC(=O)c1ccc(C(=O)Nc2cc(F)c(=O)n(CCF)c2)s1` [Compound 304], the IC50 was greater than 50 µM.

The molecule `CCn1cc(NC(=O)c2cc(-c3ccn(C)n3)c(Cl)s2)ccc1=O` [Compound 272] returned an IC50 greater than 50 µM.

As to `O=C(Nc1cc(NCCn2ccnc2)c(=O)n(CCF)c1)c1cc(Cl)c(Cl)s1` [Compound 263], the IC50 is 21.6 µM.

The molecule `CCc1cc(C(=O)Nc2ccc(=O)n(CC)c2)sc1Cl` [Compound 91] registered an IC50 greater than 50 µM.

Molecule `CCn1cc(NC(=O)c2cnc(Cl)s2)cc(Cl)c1=O` [Compound 103] came in with an IC50 of 0.356 µM.

Molecule `Nc1ncc(C(=O)Nc2cc(F)c(=O)n(CCF)c2)s1` [Compound 224] registered an IC50 greater than 50 µM.

As to `O=C(Nc1cc(F)c(=O)n(CC(F)(F)F)c1)c1cc(Cl)c(Cl)[nH]1` [Compound 169], the IC50 is 0.375 µM.

In the case of `CN(C)CCCNc1cc(NC(=O)c2cc(Cl)c(Cl)s2)cn(CCF)c1=O` [Compound 262], the IC50 stood at 15.3 µM.

`O=C(Nc1cc(F)c(=O)n(CCF)c1)c1ccc(C(F)(F)CO)s1` [Compound 322] displayed an IC50 greater than 50 µM.

As to `CCn1cc(NC(=O)c2coc(Br)n2)ccc1=O` [Compound 35], the IC50 was greater than 50 µM.

`CNc1c(C(=O)Nc2cc(F)c(=O)n(CC(F)F)c2)sc(Cl)c1Cl` [Compound 335] gave an IC50 of 7.46 µM.

In turn, `O=C(Nc1ccc(=O)n(CC(F)(F)F)c1)c1cc(Cl)c(Cl)s1` [Compound 75] had an IC50 of 0.437 µM.

With `CCn1cc(NC(=O)c2c(C)noc2C)ccc1=O` [Compound 14], the IC50 was greater than 50 µM.

In turn, `CNC(=O)c1sc(C(=O)Nc2cc(F)c(=O)n(CCF)c2)cc1Cl` [Compound 278] showed an IC50 greater than 50 µM.

As to `CCn1cc(NC(=O)c2c[nH]c(C)c2)ccc1=O` [Compound 55], the IC50 is greater than 50 µM.

`Cn1nc(C#N)cc1C(=O)Nc1cc(F)c(=O)n(CCF)c1` [Compound 243] had an IC50 of 1.64 µM.

For the molecule `CCn1cc(NC(=O)c2ccc(CN(C)C)s2)ccc1=O` [Compound 88], the IC50 is greater than 50 µM.

The test is the same for the next values; noted with them: Table 3d.1; ATPase assay, enzyme 5 nM, ATP 250 uM, chicken mononucleosome 10 nM, 30 min preincubation; read-out: FL-SMARCA2 IC>50.
Consider `CCn1nc(NC(=O)c2cc(Cl)c(Cl)n2C)ccc1=O` [Compound 16d], for which the IC50 stood at 16.7 µM.

Consider `N#Cc1cc(C(=O)Nc2cc(F)c(=O)n(CC(F)F)c2)sc1C1(F)CC1` [Compound 94d], for which the IC50 turned out to be 1.77 µM.

As to `O=C(Nc1cc(F)c(=O)n(CC(F)F)c1)c1nc(Cl)c[nH]1` [Compound 51d], the IC50 is greater than 50 µM.

Take `CCn1cc(NC(=O)c2cc(Cl)c(Cl)s2)c(C)cc1=O` [Compound 26d]: the IC50 is greater than 50 µM.

For the next test, the target named is FL-SMARCA4 (Homo sapiens, UniProt P51532). Put plainly: SMARCA4 ATPase activity assay (ADP-Glo, chicken mononucleosome substrate). The conditions noted are these: FL-SMARCA4 IC50. On the technique in general: In ADP-Glo the light output rises with the ADP produced.
Chain of FL-SMARCA4 (P51532 whole entry): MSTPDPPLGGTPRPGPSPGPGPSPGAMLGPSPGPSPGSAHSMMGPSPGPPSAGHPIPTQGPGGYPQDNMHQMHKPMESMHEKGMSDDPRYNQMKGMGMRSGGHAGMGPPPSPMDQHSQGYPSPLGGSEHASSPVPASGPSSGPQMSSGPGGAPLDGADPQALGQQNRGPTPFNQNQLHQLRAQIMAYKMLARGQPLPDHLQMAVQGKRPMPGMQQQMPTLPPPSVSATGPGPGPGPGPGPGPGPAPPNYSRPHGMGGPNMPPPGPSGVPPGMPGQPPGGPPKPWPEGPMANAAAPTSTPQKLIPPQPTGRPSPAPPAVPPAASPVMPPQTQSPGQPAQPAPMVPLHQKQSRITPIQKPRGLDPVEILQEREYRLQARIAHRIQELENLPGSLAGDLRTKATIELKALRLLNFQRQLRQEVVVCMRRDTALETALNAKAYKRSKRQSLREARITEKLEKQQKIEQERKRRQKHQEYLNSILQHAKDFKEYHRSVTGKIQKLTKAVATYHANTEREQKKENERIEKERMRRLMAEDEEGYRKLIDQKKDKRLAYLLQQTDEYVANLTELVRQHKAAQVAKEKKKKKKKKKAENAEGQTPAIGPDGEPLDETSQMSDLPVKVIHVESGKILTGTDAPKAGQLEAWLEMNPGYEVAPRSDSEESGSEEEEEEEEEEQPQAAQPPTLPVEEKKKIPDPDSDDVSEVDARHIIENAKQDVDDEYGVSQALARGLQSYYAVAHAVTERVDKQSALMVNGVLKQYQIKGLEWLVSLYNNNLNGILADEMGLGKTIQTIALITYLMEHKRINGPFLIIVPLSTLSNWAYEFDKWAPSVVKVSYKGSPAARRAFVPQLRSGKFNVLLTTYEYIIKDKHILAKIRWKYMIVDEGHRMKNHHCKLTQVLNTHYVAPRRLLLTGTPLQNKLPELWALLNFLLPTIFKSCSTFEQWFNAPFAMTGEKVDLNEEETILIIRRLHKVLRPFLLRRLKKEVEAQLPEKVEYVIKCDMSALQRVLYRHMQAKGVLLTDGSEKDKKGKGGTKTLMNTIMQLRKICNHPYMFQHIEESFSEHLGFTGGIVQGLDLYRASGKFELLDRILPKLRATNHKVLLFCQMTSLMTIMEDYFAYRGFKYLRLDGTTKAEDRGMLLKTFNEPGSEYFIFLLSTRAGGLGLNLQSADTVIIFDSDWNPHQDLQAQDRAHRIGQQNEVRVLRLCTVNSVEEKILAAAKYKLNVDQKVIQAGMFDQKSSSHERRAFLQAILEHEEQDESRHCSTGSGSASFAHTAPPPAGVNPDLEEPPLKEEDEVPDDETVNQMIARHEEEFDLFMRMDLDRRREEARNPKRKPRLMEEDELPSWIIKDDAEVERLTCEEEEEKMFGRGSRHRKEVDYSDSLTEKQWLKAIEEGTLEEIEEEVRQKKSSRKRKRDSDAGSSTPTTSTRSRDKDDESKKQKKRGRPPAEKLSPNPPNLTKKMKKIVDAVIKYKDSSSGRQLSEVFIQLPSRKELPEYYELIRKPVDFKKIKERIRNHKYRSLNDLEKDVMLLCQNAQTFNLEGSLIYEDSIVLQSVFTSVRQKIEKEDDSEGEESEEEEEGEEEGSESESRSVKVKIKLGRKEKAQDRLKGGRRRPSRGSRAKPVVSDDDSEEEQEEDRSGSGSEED
For `CCn1nc(NC(=O)c2cc(Cl)c(Cl)n2C)ccc1=O` [Compound 16d], the IC50 was greater than 50 µM.

Regarding `N#Cc1cc(C(=O)Nc2cc(F)c(=O)n(CC(F)F)c2)sc1C1(F)CC1` [Compound 94d], the IC50 came out at 17.9 µM.

`O=C(Nc1cc(F)c(=O)n(CC(F)F)c1)c1nc(Cl)c[nH]1` [Compound 51d]: the IC50 is greater than 50 µM.

`CCn1cc(NC(=O)c2cc(Cl)c(Cl)s2)c(C)cc1=O` [Compound 26d] had an IC50 greater than 50 µM.

Staying with this test, now noted: FL-SMARCA4 IC50, Table 3.2; ATPase assay, enzyme 5 nM, ATP 250 uM, chicken mononucleosome 10 nM, 30 min preincubation.
The molecule `NS(=O)(=O)c1sc(C(=O)Nc2cc(F)c(=O)n(CCF)c2)cc1Cl` [Compound 309] gave an IC50 greater than 50 µM.

On to `CCn1cc(NC(=O)c2nnc(C)s2)ccc1=O` [Compound 78], for which the IC50 was greater than 50 µM.

The molecule `CNC(=O)c1ccc(C(=O)Nc2cc(F)c(=O)n(CCF)c2)s1` [Compound 304] yielded an IC50 greater than 50 µM.

`CCn1cc(NC(=O)c2cc(-c3ccn(C)n3)c(Cl)s2)ccc1=O` [Compound 272] yielded an IC50 greater than 50 µM.

For the molecule `O=C(Nc1cc(NCCn2ccnc2)c(=O)n(CCF)c1)c1cc(Cl)c(Cl)s1` [Compound 263], the IC50 was 27.4 µM.

The molecule `CCc1cc(C(=O)Nc2ccc(=O)n(CC)c2)sc1Cl` [Compound 91] gave an IC50 greater than 50 µM.

In turn, `CCn1cc(NC(=O)c2cnc(Cl)s2)cc(Cl)c1=O` [Compound 103] came in with an IC50 of 0.531 µM.

For the molecule `Nc1ncc(C(=O)Nc2cc(F)c(=O)n(CCF)c2)s1` [Compound 224], the IC50 was greater than 50 µM.

In turn, `O=C(Nc1cc(F)c(=O)n(CC(F)(F)F)c1)c1cc(Cl)c(Cl)[nH]1` [Compound 169] displayed an IC50 of 1.41 µM.

In turn, `CN(C)CCCNc1cc(NC(=O)c2cc(Cl)c(Cl)s2)cn(CCF)c1=O` [Compound 262] registered an IC50 of 25.9 µM.

On to `O=C(Nc1cc(F)c(=O)n(CCF)c1)c1ccc(C(F)(F)CO)s1` [Compound 322], for which the IC50 was greater than 50 µM.

`CCn1cc(NC(=O)c2coc(Br)n2)ccc1=O` [Compound 35] yielded an IC50 greater than 50 µM.

In turn, `CNc1c(C(=O)Nc2cc(F)c(=O)n(CC(F)F)c2)sc(Cl)c1Cl` [Compound 335] displayed an IC50 of 45.1 µM.

As for `O=C(Nc1ccc(=O)n(CC(F)(F)F)c1)c1cc(Cl)c(Cl)s1` [Compound 75], the IC50 came out at 1.52 µM.

`CCn1cc(NC(=O)c2c(C)noc2C)ccc1=O` [Compound 14]: the IC50 was greater than 50 µM.

`CNC(=O)c1sc(C(=O)Nc2cc(F)c(=O)n(CCF)c2)cc1Cl` [Compound 278] showed an IC50 greater than 50 µM.

Molecule `CCn1cc(NC(=O)c2c[nH]c(C)c2)ccc1=O` [Compound 55] showed an IC50 greater than 50 µM.

In turn, `Cn1nc(C#N)cc1C(=O)Nc1cc(F)c(=O)n(CCF)c1` [Compound 243] displayed an IC50 of 11.7 µM.

The molecule `CCn1cc(NC(=O)c2ccc(CN(C)C)s2)ccc1=O` [Compound 88] gave an IC50 greater than 50 µM.
